Experimental data: patent US8476455B2, “1-N-phenyl-amino-1h-imidazole derivatives and pharmaceutical compositions containing them” (Laboratoire Theramex, priority 2003, dated 2013)

How the values were obtained:
[1] = target: T1, human aromatase (Homo sapiens, UniProt P11511); test: Aromatase activity alone, tritiated water method in JEG-3 cells; format: cell-based; details: footnote a: aromatase activity alone, nd: not detected, read-out: Aromatase activity IC50 (nM) ± S.E.M.
T1 construct: The JEG-3 cell line, derived from a human placental choriocarcinoma, constitutively overexpresses human aromatase; endogenous in cells; host or cells: JEG-3 (human placental choriocarcinoma)
T1 sequence (P11511 1-503): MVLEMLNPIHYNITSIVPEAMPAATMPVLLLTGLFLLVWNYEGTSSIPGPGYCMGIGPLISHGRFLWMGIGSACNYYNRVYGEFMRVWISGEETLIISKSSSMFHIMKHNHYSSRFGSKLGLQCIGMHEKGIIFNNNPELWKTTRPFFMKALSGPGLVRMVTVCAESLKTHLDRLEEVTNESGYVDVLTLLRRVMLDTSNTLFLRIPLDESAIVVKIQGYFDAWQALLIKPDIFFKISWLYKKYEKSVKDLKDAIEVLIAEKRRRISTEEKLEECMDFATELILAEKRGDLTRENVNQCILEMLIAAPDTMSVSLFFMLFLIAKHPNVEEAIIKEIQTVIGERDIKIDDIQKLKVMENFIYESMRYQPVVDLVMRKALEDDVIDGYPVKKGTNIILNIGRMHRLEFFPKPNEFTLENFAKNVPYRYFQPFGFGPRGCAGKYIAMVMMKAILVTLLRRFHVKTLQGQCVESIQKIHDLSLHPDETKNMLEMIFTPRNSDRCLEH
Procedure: The JEG-3 cell line, derived from a human placental choriocarcinoma, constitutively overexpresses human aromatase and represents a relevant model for assaying putative aromatase inhibitors in vitro. Aromatase activity was determined by the tritiated water method. In brief, cells were first seeded into 96-well microplates in decomplemented fetal calf serum (dFCS) supplemented medium. 24 hours later, cells were rinsed and fresh medium containing 1β-^3H-androstenedione as aromatase substrate was added together with test compounds at concentrations ranging from 10^−12 M to 10^−5 M. After 2 hours of incubation, a fraction of the medium was transferred to homologous new 96-well microplates and a dextran-coated charcoal solution was added to each well. Following standing on ice for 10 minutes, microplates were centrifuged (1500 g; 4° C.). All steroids, including the radioactive substrate and the newly biosynthesized estrogens, were adsorbed on charcoal; only ^3H-water specifically formed during aromatisation of 1β-^3H-androstenedione, remained in the supernatant. The radioactivity in the supernatant was measured by liquid scintillation counting. In parallel, cell solubilization was performed in ethylenediamine tetraacetate solution. […] Finally, aromatase activity was expressed in fmoles of ^3H-water formed/2 hours/μg DNA and aromatase inhibition as a percentage of control activity without inhibitor.

[2] = target: T1, human aromatase; test: Dual aromatase and steroid sulfatase activities in JEG-3 cells: aromatase readout; format: cell-based; details: footnote c: dual aromatase and sulfatase activity, nd: not detected, read-out: Aromatase activity IC50 (nM) ± S.E.M.
Procedure: Assays were carried out with cells in logarithmic growth phase on 96-well microplates. 24 h before studies, cells were seeded in decomplemented fetal calf serum (dFCS) supplemented medium. The medium was removed 24 h later and cells were rinsed with PBS to eliminate any trace of dFCS. Then, ^3H-E1S was added in dFCS free medium, followed by test compounds at concentrations ranging from 10^−12 M to 10^−5 M. After 4 h of treatment, the medium was transferred into 96-deep-well microplates and centrifuged at 200×g for 10 min to pellet cells before toluene extraction. A fraction of the medium was used for toluene extraction in order to separate the conjugated substrate from non-conjugated products. The radioactivity in the toluene phase was measured by liquid scintillation counting. […] Finally, estrone sulfatase activity was expressed in pmoles of ^3H-E1+^3H-E2 formed/4 hours/mg DNA and estrone sulfatase inhibition as a percentage of control activity without inhibitor.
In order to evaluate the inhibitory potency of DASI compounds in parallel on both human aromatase and steroid sulfatase activities, a new in vitro model was set up using JEG-3 cells. The experimental conditions of the steroid sulfatase model previously described was adopted with slight modifications: the presence of the two substrates ^3-HE1S and 1β-^3H-androstenedione into the medium and an incubation period of 2 hours. Results were expressed in pmoles of product formed (^3H-E1+^3H-E2 or ^3H2O)/2 hours/mg DNA (Table 1).

| Structure (SMILES) | IC50 [1] [nM] | melting point [°C] | IC50 [2] [nM] |
| --- | --- | --- | --- |
| N#Cc1ccc(N(Cc2ccc(O)c(Cl)c2)n2ccnc2)cc1 [Ex 12, 4-[N-(3-chloro-4-hydroxyphenylmethyl)-N-(1H-imidazol-1-yl)amino]benzonitrile] | – | 195 | – |
| COc1cc(CN(c2ccc(C#N)cc2)n2ccnc2)ccc1O [Ex 14, 4-[N-(4-hydroxy-3-methoxyphenylmethyl)-N-(1H-imidazol-1-yl)amino]benzonitrile] | 0.21 ± 0.05 | 215 | – |
| N#Cc1ccc(N(Cc2c(F)c(F)c(O)c(F)c2F)n2ccnc2)cc1 [Ex 15, 4-[N-(2,3,5,6-tetrafluoro-4-hydroxyphenylmethyl)-N-(1H-imidazol-1-yl)amino]benzonitrile] | – | 243 | – |
| N#Cc1ccc(N(Cc2ccc(Cl)nc2)n2ccnc2)cc1 [Ex 18, 4-{N-[(6-chloropyridin-3-yl)methyl]-N-(1H-imidazol-1-yl)amino}benzonitrile] | – | 156 | – |
| N#Cc1ccc(N(Cc2ccc(S(N)(=O)=O)cc2)n2ccnc2)cc1 [Ex 19, 4-{[N-(4-cyanophenyl)-N-(1H-imidazol-1-yl)amino]methyl}benzene sulfonamide] | – | 150 | – |
| N#Cc1ccc(N(Cc2ccc(O)c([N+](=O)[O-])c2)n2ccnc2)cc1 [Ex 20, 4-[N-(4-hydroxy-3-nitrophenylmethyl)-N-(1H-imidazol-1-yl)amino]benzonitrile] | 0.3 | 205 | – |
| N#Cc1ccc(N(c2ccc([N+](=O)[O-])cc2)n2ccnc2)cc1 [Ex 22, 4-[N-(1H-imidazol-1-yl)-N-(4-nitrophenyl)amino]benzonitrile] | 0.32 ± 0.4 | – | – |
| N#Cc1ccc(N(C(=O)c2ccc(Cl)nc2)n2ccnc2)cc1 [Ex 23, 6-chloro-N-(4-cyanophenyl)-N-(1H-imidazol-1-yl)nicotinamide] | – | 132 | – |
| N#Cc1ccc(N(C(=O)Cc2ccc(F)cc2)n2ccnc2)cc1 [Ex 24, N-(1H-imidazol-1-yl)-N-(4-cyanophenyl)-2-(4-fluorophenyl)acetamide] | – | 131 | – |
| N#Cc1ccc(N(C(=O)CCc2ccc(O)cc2)n2ccnc2)cc1 [Ex 26, N-(4-cyanophenyl)-3-(4-hydroxyphenyl)-N-(1H-imidazol-1-yl)propanamide] | 50.6 | 172 | – |
| COc1ccc2c(CC(=O)N(c3ccc(C#N)cc3)n3ccnc3)csc2c1 [Ex 29, N-(4-cyanophenyl)-N-(1H-imidazol-1-yl)-2-(6-methoxy-benzothien-3-yl)acetamide] | – | 104 | – |
| COc1ccc2c(CN(c3ccc(C#N)cc3)n3ccnc3)csc2c1 [Ex 30, 4-{N-[1H-imidazol-1-yl]-N-[(6-methoxy-benzothien-3-yl)methyl]amino}benzonitrile] | – | – | 0.06 |
| N#Cc1ccc(N(C(=O)Cc2csc3cc(O)ccc23)n2ccnc2)cc1 [Ex 34, N-(4-cyanophenyl)-N-(1H-imidazol-1-yl)-2-(6-hydroxy-benzothien-3-yl)acetamide] | – | 179 | – |
| N#Cc1ccc(N(Cc2ccc(O)c(N)c2)n2ccnc2)cc1 [Ex 35, 4-[N-(3-amino-4-hydroxy-phenylmethyl)-N-(1H-imidazol-1-yl)amino]benzonitrile] | – | – | 2.2 ± 0.7 |
| N#Cc1ccc(N(CCOc2ccc(O)cc2)n2ccnc2)cc1 [Ex 36, 4-{N-[2-(4-hydroxyphenoxy)ethyl]-N-(1H-imidazol-1-yl)amino}benzonitrile] | – | 188 | 0.61 ± 0.21 |
| N#Cc1ccc(N(n2ccnc2)S(=O)(=O)c2ccc(O)cc2)cc1 [Ex 37, N-(4-cyanophenyl)-N-(1H-imidazol-1-yl)-4-hydroxybenzensulfonamide] | – | 248 | 52 ± 9.6 |
| N#Cc1ccc(N(Cc2cc3ccc(O)cc3s2)n2ccnc2)cc1 [Ex 39, 4-[N-[(6-hydroxy-benzothien-2-yl)methyl]-N-(1H-imidazol-1-yl)amino]benzonitrile] | – | 230 | – |
| N#Cc1ccc(N(Cc2csc3cc(OS(N)(=O)=O)ccc23)n2ccnc2)cc1 [Ex 58, Sulfamic acid 3-{[N-(4-cyanophenyl)-N-(1H-imidazol-1yl)amino]methyl}-benzothien-6-yl ester] | – | 193 | – |
| N#Cc1ccc(N(Cc2ccc3c(c2)CNS(=O)(=O)O3)n2ccnc2)cc1 [Ex 61, 4-[N-[(2,2-dioxido-3,4-dihydro-1,2,3-benzoxathiazin-6-yl)methyl]-N-(1H-imidazol-1-yl)amino]benzonitrile] | 1.06 ± 0.21 | – | – |
| N#Cc1ccc(N(Cc2ccc(O)c(C(=O)O)c2)n2ccnc2)cc1 [Ex 62, 5-{[N-(4-cyanophenyl)-N-(1H-imidazol-1-yl)amino]methyl}-2-hydroxybenzoic acid] | – | – | 81.8 |

Results, then the compound that gave them:

| IC50 [1] [nM] | melting point [°C] | IC50 [2] [nM] | Structure (SMILES) |
| --- | --- | --- | --- |
| 0.17 ± 0.01 | – | – | N#Cc1ccc(N(Cc2ccc(O)cc2)n2ccnc2)cc1 [Ex 11, 4-[N-(4-hydroxyphenylmethyl)-N-(1H-imidazol-1-yl)amino]benzonitrile] |
| 0.17 ± 0.03 | 198 | 0.05 ± 0.02 | N#Cc1ccc(N(Cc2ccc(O)c(Br)c2)n2ccnc2)cc1 [Ex 13, 4-[N-(3-bromo-4-hydroxyphenylmethyl)-N-(1H-imidazol-1-yl)amino]benzonitrile] |
| – | 160 | – | N#Cc1ccc(N(Cc2ccc(O)c(C=O)c2)n2ccnc2)cc1 [Ex 16, 4-[N-(3-formyl-4-hydroxyphenylmethyl)-N-(1H-imidazol-1-yl)amino]benzonitrile] |
| – | 187 | – | COc1ccc(CN(c2ccc(C#N)cc2)n2ccnc2)cc1C(=O)O [Ex 21, 5-{[N-(4-cyanophenyl)-N-(1H-imidazol-1-yl)amino]methyl}-2-methoxybenzoic acid] |
| 0.67 ± 0.1 | – | – | N#Cc1ccc(N(c2ccc(N)cc2)n2ccnc2)cc1 [Ex 40, 4-[N-(4-aminophenyl)-N-(1H-imidazol-1-yl)amino]benzonitrile] |
| – | – | 4.3 | N#Cc1ccc(N(C(=O)c2cc3cc(N)ccc3s2)n2ccnc2)cc1 [Ex 41, 5-Amino-[N-(4-cyanophenyl)-N-(1H-imidazol-1-yl)]-benzothiophene-2-carboxamide] |
| – | 121 | – | N#Cc1ccc(N(c2ccc(NS(N)(=O)=O)cc2)n2ccnc2)cc1 [Ex 49, N-{4-[N-(4-cyanophenyl)-N-(1H-imidazol-1-yl)amino]phenyl}sulfamide] |
| – | 197 | – | N#Cc1ccc(N(Cc2ccc(OS(N)(=O)=O)cc2NS(N)(=O)=O)n2ccnc2)cc1 [Ex 54, Sulfamic acid 3-(aminosulfonyl)amino-4-{[N-(4-cyanophenyl)-N-(1H-imidazol-1yl)amino]methyl}phenyl ester] |
| – | 172 | – | N#Cc1ccc(N(C2=CS(=O)(=O)c3cc(OS(N)(=O)=O)ccc32)n2ccnc2)cc1 [Ex 56, Sulfamic acid 3-[N-(4-cyanophenyl)-N-(1H-imidazol-1yl)amino]-1,1-dioxido-benzothien-6-yl ester] |
| – | 178 | – | N#Cc1ccc(N(Cc2cc3ccc(OS(N)(=O)=O)cc3s2)n2ccnc2)cc1 [Ex 59, Sulfamic acid 2-{[N-(4-cyanophenyl)-N-(1H-imidazol-1yl)amino]methyl}-benzothien-6-yl ester] |
